Read-outs that look alike come from different tables or passages of the source. Marks after values point to notes of the source that are not given here. Where a SMILES comes first, the peptide text is derived from it. The star is where a group is joined. Cbz = O=C(OCc1ccccc1)*
What was measured:
[1] = test system: progerin; assay: Progerin expression by western blot, normalised to total protein (Revert protein stain); assay type: cell-based, human; conditions: T=72 hours, mean of n=3 unless footnoted; for Mean decrease of progerin expression relative to DMSO control: compounds tested at CV25, HGPS cells; for Mean change of progerin expression relative to DMSO control: compounds tested at CV75, HGPS cells, decrease (−) or increase
Protocol: All molecules were diluted in DMSO at 10 mM. […] Drug efficiency was evaluated in 6-well plates.
Total fibroblast proteins were extracted after 72 hours treatment in 100 μL of NP40 (Invitrogen) with 1× protease and phosphatase inhibitor cocktail (Life Technologies). Lysats were incubated on ice for 30 minutes, with vortexing at 10-minute intervals. Finally, they were sonicated four times (20 sec each) and then centrifuged at 13000 rpm for 10 minutes at 4° C.
Protein concentrations were determined with the BCA™ Protein Assay (Life Technologies).
Protein lysates were separated on Nupage Novex 4-12% Bis-Tris Midi precast gels (Life Technologies) and transferred to Immobilon-FL PVDF membranes (Millipore, Molsheim, France). Membranes were blocked for one hour in 1:1 diluted blocking buffer for near infrared fluorescent western blotting (Rockland, Le Perray, France). Blocked membranes were incubated with primary antibodies overnight at 4° C., following which they were washed and incubated with IR-Dye conjugated secondary antibodies for one hour at RT. Bound antibodies were detected and analyzed on an Odyssey imaging system (Li-COR Biosciences, Bad Homburg, Germany) according to the manufacturer's instructions. Revert Protein Stain (Li-COR Biosciences) was used as a total protein loading control in addition to two traditional protein loading control GAPDH and Actin. Progerin and SRSF1 levels were quantified and normalized by Revert staining using Image Studio Lite™ software developed by Li-COR.
The following antibodies were used in this study: rabbit monoclonal anti-lamin A/C (ab108922, 1/1000, Abcam, Amsterdam, Netherlands), rabbit monoclonal anti-SRSF1 (SF2) (ab129108, 1/1000, Abcam), mouse monoclonal anti-GAPDH (MAB374, 1/40000, Millipore, Molsheim, France) and mouse monoclonal anti-actin (MAB1501R, 1/10000, Millipore. Secondary antibodies conjugated with IR-Dye 800CW or 680 were used according to the manufacturer's instructions (926-32213 and 926-68072, 1/5000, Li-COR Biosciences).
(§1) Mean decrease of progerin expression (presented as a percentage of the concentration measured in DMSO control) with compounds tested at CV25, in HGPS cells at T=72 hours, determined by western blot analysis and normalised to the total amount of protein (Revert protein stain) (mean of n=3 (range)) is presented in the following Table 1:
as §1, with “change (decrease (−) or increase)” for “decrease”, “CV75,” for “CV25,”, “2: […]” for “1:”

[2] = test system: HGPS fibroblast; conditions: human, 72 h
Protocol: (§2) Fibroblasts from HGPS donors from passage 18 to 24 were cultured in DMEM low glucose (Life Technologies, Courtabœuf, France) containing 15% FBS (Life Technologies), 2 mM L-glutamine (Life Technologies) and 100 U/mL penicillin-streptomycin (Life Technologies) at 37° C. in a humidified atmosphere containing 5% CO2.
(§3) All molecules were diluted in DMSO at 10 mM. Concentrations from 100 μM to 0.0001 nM were used to test cell viability in 96-well plates. Drug efficiency was evaluated in 6-well plates.
(§4) Assays were carried out in 96-well microplates. After 72 hours of treatment, the cells were washed once with 100 μL DPBS (no calcium, no magnesium). Then 100 μl of PrestoBlue solution (Life Technologies) diluted at 10% in DPBS was added to each well. Plates were incubated at 37° C. for 30 minutes. The fluorescence intensity was measured by multiwell plate reader (Glomax microplate reader, Promega, Charbonnières les Bains, France) using green filter (Excitation 525 nm/emission 580-640 nm). Fluorescence intensities values were pasted in Prism Software (Graph Pad, San Diego, CA) to perform a dose response analysis. CV25 correspond to drug concentrations at which HGPS fibroblast cell viability was 25%. CV75 correspond to drug concentrations at which HGPS fibroblast cell viability was 75%.

[3] = test system: HGPS fibroblast; assay: Cell viability and assessment of toxicity (PrestoBlue, dose response); conditions: 72 hours of treatment
Protocol: as §2, §3, §4

CC(C)C[C@@H](C=O)NC(=O)[C@H](CC(C)C)NC(=O)[C@H](Cc1ccccc1)NC(=O)OCc1ccccc1 [Compound 4, Z-Phenylalanine-Leucine-Leucinal] (Cbz-Phe-Leu-Leu-aldehyde)
Mean decrease of progerin expression relative to DMSO control [1]: 70%
Mean change of progerin expression relative to DMSO control [1]: −12%
CV25 [2]: 0.402 µM
CV75 [2]: 0.133 µM

CC(C)C[C@@H](C=O)NC(=O)[C@H](CC(C)C)NC(=O)[C@H](CC(C)C)NC(=O)OCc1ccccc1 [Compound 1, Z-Leu-Leu-Leucinal, reference compound] (Cbz-Leu-Leu-Leu-aldehyde)
Mean decrease of progerin expression relative to DMSO control [1]: 67* %
Mean change of progerin expression relative to DMSO control [1]: −3* %
CV25 ([3]; drug concentration at which HGPS fibroblast cell viability was 25%): 0.270 µM
CV75 ([3]; drug concentration at which HGPS fibroblast cell viability was 75%): 0.137 µM

CC(C)C[C@@H](C=O)NC(=O)[C@H](CC(C)C)NC(=O)[C@H](CC(C)C)NC(=O)c1cnccn1 [Compound 7]
Mean decrease of progerin expression relative to DMSO control [1]: 79%
Mean change of progerin expression relative to DMSO control [1]: −36%
CV25 [2]: 5.5 µM
CV75 [2]: 2.1 µM

CC(C)C[C@@H](C=O)NC(=O)[C@H](CC(C)C)NC(=O)[C@H](CC(C)C)NC(=O)Cc1ccc(F)cc1F [Compound 8]
Mean decrease of progerin expression relative to DMSO control [1]: 47%
Mean change of progerin expression relative to DMSO control [1]: −16%
CV25 [2]: 0.152 µM
CV75 [2]: 0.073 µM

CC(C)C[C@@H](C=O)NC(=O)[C@H](CC(C)C)NC(=O)[C@H](CC(C)C)NC(=O)Cc1cccc(CC(=O)N[C@@H](CC(C)C)C(=O)N[C@@H](CC(C)C)C(=O)N[C@H](C=O)CC(C)C)c1 [Compound 14]
Mean decrease of progerin expression relative to DMSO control [1]: 66%
Mean change of progerin expression relative to DMSO control [1]: −1%
CV25 [2]: 0.589 µM
CV75 [2]: 0.155 µM

CC(C)C[C@H](NC(=O)OCc1ccccc1)C(=O)N[C@@H](CC(C)C)C(=O)N[C@H](C(=O)N[C@H](C=O)Cc1ccc(O)cc1)C(C)C [Compound 13] (Cbz-LLVY-aldehyde)
Mean decrease of progerin expression relative to DMSO control [1]: 68*** %
Mean change of progerin expression relative to DMSO control [1]: −29*** %
CV25 [2]: 0.020 µM
CV75 [2]: 0.007 µM

CC(C)C[C@@H](C=O)NC(=O)[C@H](Cc1ccccc1)NC(=O)[C@H](CC(C)C)NC(=O)OCc1ccccc1 [Compound 6, Z-Leucine-Phenylalanine-Leucinal] (Cbz-Leu-Phe-Leu-aldehyde)
Mean decrease of progerin expression relative to DMSO control [1]: 69%
Mean change of progerin expression relative to DMSO control [1]: 6%
CV25 [2]: 0.142 µM
CV75 [2]: 0.060 µM

CC(=O)N[C@@H](CC(C)C)C(=O)N[C@@H](CC(C)C)C(=O)N[C@H](C=O)CC(C)C [Compound 3] (Ac-Leu-Leu-Leu-aldehyde)
Mean decrease of progerin expression relative to DMSO control [1]: 71%
Mean change of progerin expression relative to DMSO control [1]: 0%
CV25 [2]: 1.800 µM
CV75 [2]: 0.720 µM

CC(C)C[C@@H](/C=N/NC(N)=O)NC(=O)[C@H](CC(C)C)NC(=O)[C@H](CC(C)C)NC(=O)OCc1ccccc1 [Compound 16]
Mean decrease of progerin expression relative to DMSO control [1]: 66%
Mean change of progerin expression relative to DMSO control [1]: 0%
CV25 [2]: 1.750 µM
CV75 [2]: 0.195 µM

CC(C)C[C@@H](C=O)NC(=O)[C@H](CC(C)C)NC(=O)[C@H](CC(C)C)NC(=O)c1cc(Cl)ccc1Cl [Compound 12]
Mean decrease of progerin expression relative to DMSO control [1]: 61** %
Mean change of progerin expression relative to DMSO control [1]: −1** %
CV25 [2]: 0.063 µM
CV75 [2]: 0.001 µM

— patent publication US20240010610A1, “COMPOUNDS FOR TREATING SEGMENTAL PROGEROID SYNDROMES” (Progelife, priority 2020, published 2024)
